Source: ChEMBL document CHEMBL1125558 (J Med Chem, 1992)

How the values were obtained:
[1] = target: Sodium-dependent dopamine transporter (Rattus norvegicus, UniProt P23977); assay: Compound was evaluated for its ability to displace [3H]mazindol binding from rat striatal membranes
[2] = species: Rattus norvegicus; assay: Compound was evaluated for its ability to inhibit high-affinity uptake of [3H]dopamine into striatal nerve endings of rat; format: functional
[3] = tested on: Rattus norvegicus; assay: Mean responses per minute at dose 0.8 mg/kg evaluated by substitution tests in trained rats(post injection interval 240 min); format: functional
[4] = tested on: Rattus norvegicus; assay: Percent response at dose 0.4 mg/kg evaluated by substitution tests in trained rats(post injection interval 120 min); format: functional
[5] = tested on: Rattus norvegicus; assay: Number of animals(n) completing 20 responses on either lever out of the number of animals tested (N) at dose 0.05 mg/kg evaluated by dose-response tests in trained rats(post injection interval 240 min); n/N=7/7; format: functional
[6] = tested on: Rattus norvegicus; assay: Number of animals(n) completing 20 responses on either lever out of the number of animals tested (N) at dose 0.2 mg/kg evaluated by dose-response tests in trained rats(post injection interval 120 min); n/N=7/7; format: functional
[7] = tested on: Rattus norvegicus; assay: Mean responses per minute at dose 0.1 mg/kg evaluated by substitution tests in trained rats(post injection interval 240 min); format: functional
[8] = species: Rattus norvegicus; assay: Result of substitution tests in trained rats and expressed as effective dose(post injection interval 240 min); format: functional; details: 4 h
[9] = tested on: Rattus norvegicus; assay: Mean responses per minute at dose 0.4 mg/kg evaluated by substitution tests in trained rats(post injection interval 30 min); format: functional
[10] = tested on: Rattus norvegicus; assay: Mean responses per minute at dose 0.4 mg/kg evaluated by substitution tests in trained rats(post injection interval 240 min); format: functional
[11] = tested on: Rattus norvegicus; assay: Percent response at dose 0.4 mg/kg evaluated by substitution tests in trained rats(post injection interval 240 min); format: functional
[12] = tested on: Rattus norvegicus; assay: Percent response at dose 0.05 mg/kg evaluated by substitution tests in trained rats(post injection interval 240 min); format: functional
[13] = tested on: Rattus norvegicus; assay: Number of animals(n) completing 20 responses on either lever out of the number of animals tested (N) at dose 0.4 mg/kg evaluated by dose-response tests in trained rats(post injection interval 240 min); n/N=4/5; format: functional
[14] = tested on: Rattus norvegicus; assay: Number of animals(n) completing 20 responses on either lever out of the number of animals tested (N) at dose 0.2 mg/kg evaluated by dose-response tests in trained rats(post injection interval 240 min); n/N=7/7; format: functional
[15] = tested on: Rattus norvegicus; assay: Mean responses per minute at dose 0.4 mg/kg evaluated by substitution tests in trained rats(post injection interval 120 min); format: functional
[16] = tested on: Rattus norvegicus; assay: Number of animals(n) completing 20 responses on either lever out of the number of animals tested (N) at dose 0.1 mg/kg evaluated by dose-response tests in trained rats(post injection interval 30 min); n/N=7/7; format: functional
[17] = tested on: Rattus norvegicus; assay: Percent response at dose 0.1 mg/kg evaluated by substitution tests in trained rats(post injection interval 120 min); format: functional
[18] = tested on: Rattus norvegicus; assay: Number of animals(n) completing 20 responses on either lever out of the number of animals tested (N) at dose 0.05 mg/kg evaluated by dose-response tests in trained rats(post injection interval 120 min); n/N=7/7; format: functional
[19] = tested on: Rattus norvegicus; assay: Mean responses per minute at dose 0.2 mg/kg evaluated by substitution tests in trained rats(post injection interval 120 min); format: functional
[20] = tested on: Rattus norvegicus; assay: Mean responses per minute at dose 0.05 mg/kg evaluated by substitution tests in trained rats(post injection interval 30 min); format: functional
[21] = tested on: Rattus norvegicus; assay: Mean responses per minute at dose 0.8 mg/kg evaluated by substitution tests in trained rats(post injection interval 120 min); format: functional
[22] = tested on: Rattus norvegicus; assay: Number of animals(n) completing 20 responses on either lever out of the number of animals tested (N) at dose 0.05 mg/kg evaluated by dose-response tests in trained rats(post injection interval 30 min); n/N=7/7; format: functional
[23] = tested on: Rattus norvegicus; assay: Number of animals(n) completing 20 responses on either lever out of the number of animals tested (N) at dose 0.8 mg/kg evaluated by dose-response tests in trained rats(post injection interval 120 min); n/N=1/7; format: functional
[24] = tested on: Rattus norvegicus; assay: Number of animals(n) completing 20 responses on either lever out of the number of animals tested (N) at dose 0.1 mg/kg evaluated by dose-response tests in trained rats(post injection interval 240 min); n/N=7/7; format: functional
[25] = tested on: Rattus norvegicus; assay: Percent response at dose 0.1 mg/kg evaluated by substitution tests in trained rats(post injection interval 30 min); format: functional
[26] = tested on: Rattus norvegicus; assay: Mean responses per minute at dose 0.8 mg/kg evaluated by substitution tests in trained rats(post injection interval 30 min); format: functional
[27] = tested on: Rattus norvegicus; assay: Percent response at dose 0.2 mg/kg evaluated by substitution tests in trained rats(post injection interval 120 min); format: functional
[28] = species: Rattus norvegicus; assay: Result of substitution tests in trained rats and expressed as effective dose(post injection interval 30 min); format: functional; details: 0.5 h
[29] = tested on: Rattus norvegicus; assay: Mean responses per minute at dose 0.1 mg/kg evaluated by substitution tests in trained rats(post injection interval 30 min); format: functional
[30] = tested on: Rattus norvegicus; assay: Mean responses per minute at dose 0.2 mg/kg evaluated by substitution tests in trained rats(post injection interval 30 min); format: functional
[31] = tested on: Rattus norvegicus; assay: Percent response at dose 0.05 mg/kg evaluated by substitution tests in trained rats(post injection interval 120 min); format: functional
[32] = tested on: Rattus norvegicus; assay: Percent response at dose 0.4 mg/kg evaluated by substitution tests in trained rats(post injection interval 30 min); format: functional
[33] = tested on: Rattus norvegicus; assay: Number of animals(n) completing 20 responses on either lever out of the number of animals tested (N) at dose 0.8 mg/kg evaluated by dose-response tests in trained rats(post injection interval 30 min); n/N=7/7; format: functional
[34] = tested on: Rattus norvegicus; assay: Number of animals(n) completing 20 responses on either lever out of the number of animals tested (N) at dose 0.8 mg/kg evaluated by dose-response tests in trained rats(post injection interval 240 min); n/N=3/7; format: functional
[35] = tested on: Rattus norvegicus; assay: Mean responses per minute at dose 0.1 mg/kg evaluated by substitution tests in trained rats(post injection interval 120 min); format: functional
[36] = tested on: Rattus norvegicus; assay: Percent response at dose 0.2 mg/kg evaluated by substitution tests in trained rats(post injection interval 30 min); format: functional
[37] = species: Rattus norvegicus; assay: Result of substitution tests in trained rats and expressed as effective dose(post injection interval 120 min); format: functional; details: 2 h
[38] = tested on: Rattus norvegicus; assay: Number of animals(n) completing 20 responses on either lever out of the number of animals tested (N) at dose 0.2 mg/kg evaluated by dose-response tests in trained rats(post injection interval 30 min); n/N=7/7; format: functional
[39] = tested on: Rattus norvegicus; assay: Percent response at dose 0.8 mg/kg evaluated by substitution tests in trained rats(post injection interval 30 min); format: functional
[40] = tested on: Rattus norvegicus; assay: Number of animals(n) completing 20 responses on either lever out of the number of animals tested (N) at dose 0.4 mg/kg evaluated by dose-response tests in trained rats(post injection interval 120 min); n/N=3/5; format: functional
[41] = tested on: Rattus norvegicus; assay: Mean responses per minute at dose 0.05 mg/kg evaluated by substitution tests in trained rats(post injection interval 240 min); format: functional
[42] = tested on: Rattus norvegicus; assay: Percent response at dose 0.8 mg/kg evaluated by substitution tests in trained rats(post injection interval 240 min); format: functional
[43] = tested on: Rattus norvegicus; assay: Percent response at dose 0.2 mg/kg evaluated by substitution tests in trained rats(post injection interval 240 min); format: functional
[44] = tested on: Rattus norvegicus; assay: Mean responses per minute at dose 0.05 mg/kg evaluated by substitution tests in trained rats(post injection interval 120 min); format: functional
[45] = tested on: Rattus norvegicus; assay: Percent response at dose 0.1 mg/kg evaluated by substitution tests in trained rats(post injection interval 240 min); format: functional
[46] = tested on: Rattus norvegicus; assay: Mean responses per minute at dose 0.2 mg/kg evaluated by substitution tests in trained rats(post injection interval 240 min); format: functional
[47] = tested on: Rattus norvegicus; assay: Number of animals(n) completing 20 responses on either lever out of the number of animals tested (N) at dose 0.1 mg/kg evaluated by dose-response tests in trained rats(post injection interval 120 min); n/N=7/7; format: functional
[48] = tested on: Rattus norvegicus; assay: Percent response at dose 0.05 mg/kg evaluated by substitution tests in trained rats(post injection interval 30 min); format: functional
[49] = tested on: Rattus norvegicus; assay: Percent response at dose 0.8 mg/kg evaluated by substitution tests in trained rats(post injection interval 120 min); format: functional
[50] = tested on: Rattus norvegicus; assay: Number of animals(n) completing 20 responses on either lever out of the number of animals tested (N) at dose 0.4 mg/kg evaluated by dose-response tests in trained rats(post injection interval 30 min); n/N=7/7; format: functional
[51] = species: Rattus norvegicus; assay: Compound was evaluated for its ability to displace [3H]-mazindol binding from rat striatal membranes

Chain of Sodium-dependent dopamine transporter (P23977 whole entry): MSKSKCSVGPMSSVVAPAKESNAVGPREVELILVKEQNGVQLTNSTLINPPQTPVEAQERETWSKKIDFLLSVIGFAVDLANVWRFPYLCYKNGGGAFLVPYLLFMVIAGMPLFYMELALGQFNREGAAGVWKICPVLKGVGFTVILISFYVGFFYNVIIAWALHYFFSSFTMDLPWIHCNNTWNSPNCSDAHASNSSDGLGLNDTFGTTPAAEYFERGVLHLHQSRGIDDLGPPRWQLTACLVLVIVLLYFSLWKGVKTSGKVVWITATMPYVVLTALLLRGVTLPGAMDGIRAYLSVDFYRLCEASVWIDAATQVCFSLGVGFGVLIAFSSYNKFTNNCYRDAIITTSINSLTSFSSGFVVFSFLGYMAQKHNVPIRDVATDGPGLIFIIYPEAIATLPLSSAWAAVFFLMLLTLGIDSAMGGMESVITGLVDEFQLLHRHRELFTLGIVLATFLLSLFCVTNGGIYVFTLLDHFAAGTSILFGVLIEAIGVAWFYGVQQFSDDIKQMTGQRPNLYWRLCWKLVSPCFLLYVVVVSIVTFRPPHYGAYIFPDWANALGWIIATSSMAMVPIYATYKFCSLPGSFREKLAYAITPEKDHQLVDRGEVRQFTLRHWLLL

With `C=C[C@@H]1C2CC[C@H](C[C@@H]1OC(=O)c1ccccc1)N2C` as the compound, how does the IC50 [1] read?
Its IC50 is 1730 nM.

What about the IC50 [2] of the same compound?
The IC50 was 1120 nM.

For `CN1C2CC[C@@H]1C[C@H](OC(=O)c1ccccc1)[C@@H]2/C=C/Cl`, which IC50 [1] is on record?
The IC50 was 222 nM.

And the IC50 [2]?
The IC50 was 368 nM.

How did the Rate response [3] turn out when `C=C[C@@H]1C2CCC(C[C@@H]1c1ccc(Cl)cc1)N2C` (stereo partly specified) was run?
Its Rate response is 39.1 min⁻¹.

And the Drug response [4]?
The Drug response was 72%.

And the “No. resp animals / Total” value [5]?
Its value is 7 / 7.

And the “No. resp animals / Total” value [6]?
Its value is 7 / 7.

What about the Rate response [7] of the same compound?
Its Rate response is 23.5 min⁻¹.

And the ED50 [8]?
Its ED50 is 0.09 mg/kg.

And the Rate response [9]?
Its Rate response is 52.8 min⁻¹.

What about the Rate response [10] of the same compound?
Its Rate response is 23.6 min⁻¹.

What about the Drug response [11] of the same compound?
The Drug response was 91%.

And the Drug response [12]?
The Drug response was 14%.

And the “No. resp animals / Total” value [13]?
The value was 1 / 7.

What about the “No. resp animals / Total” value [14] of the same compound?
The value was 7 / 7.

And the Rate response [15]?
The Rate response was 24.9 min⁻¹.

What about the “No. resp animals / Total” value [16] of the same compound?
The value was 4 / 5.

What about the Drug response [17] of the same compound?
The Drug response was 75%.

What about the “No. resp animals / Total” value [18] of the same compound?
Its value is 7 / 7.

What about the Rate response [19] of the same compound?
The Rate response was 46.8 min⁻¹.

And the Rate response [20]?
The Rate response was 29.6 min⁻¹.

And the Rate response [21]?
Its Rate response is 7.7 min⁻¹.

What about the “No. resp animals / Total” value [22] of the same compound?
Its value is 7 / 7.

And the “No. resp animals / Total” value [23]?
Its value is 5 / 5.

What about the “No. resp animals / Total” value [24] of the same compound?
Its value is 7 / 7.

And the Drug response [25]?
The Drug response was 40%.

And the Rate response [26]?
The Rate response was 33.5 min⁻¹.

And the Drug response [27]?
The Drug response was 100%.

And the ED50 [28]?
Its ED50 is 0.11 mg/kg.

And the IC50 [2]?
Its IC50 is 2.8 nM.

And the Rate response [29]?
The Rate response was 37.1 min⁻¹.

And the Rate response [30]?
The Rate response was 26.2 min⁻¹.

And the Drug response [31]?
The Drug response was 22%.

And the Drug response [32]?
The Drug response was 99%.

And the “No. resp animals / Total” value [33]?
Its value is 7 / 7.

And the “No. resp animals / Total” value [34]?
The value was 3 / 7.

What about the Rate response [35] of the same compound?
The Rate response was 25.7 min⁻¹.

What about the Drug response [36] of the same compound?
The Drug response was 83%.

What about the ED50 [37] of the same compound?
The ED50 was 0.08 mg/kg.

And the “No. resp animals / Total” value [38]?
The value was 7 / 7.

What about the Drug response [39] of the same compound?
Its Drug response is 93%.

And the “No. resp animals / Total” value [40]?
Its value is 7 / 7.

And the Rate response [41]?
The Rate response was 28.3 min⁻¹.

And the Drug response [42]?
The Drug response was 100%.

And the Drug response [43]?
The Drug response was 98%.

And the Rate response [44]?
Its Rate response is 18.4 min⁻¹.

And the Drug response [45]?
The Drug response was 61%.

And the Rate response [46]?
Its Rate response is 47.9 min⁻¹.

What about the “No. resp animals / Total” value [47] of the same compound?
Its value is 7 / 7.

What about the Drug response [48] of the same compound?
The Drug response was 19%.

And the Drug response [49]?
Its Drug response is 95%.

What about the “No. resp animals / Total” value [50] of the same compound?
The value was 7 / 7.

Which IC50 [2] does the source give for `CN1C2CCC1[C@@H](/C=C/Cl)[C@@H](c1ccc(Cl)cc1)C2` (stereo partly specified) here?
Its IC50 is 1.3 nM.

What about the IC50 [51] of the same compound?
Its IC50 is 0.7 nM.

How did the IC50 [2] turn out when `COC(=O)C1C2CC[C@H](C[C@@H]1c1ccc(Cl)cc1)N2C` (stereo partly specified) was run?
The IC50 was 3.2 nM.
